Data from ChEMBL document CHEMBL1649448, “Atorvastatin is a promising partner for antimalarial drugs in treatment of Plasmodium falciparum malaria” (Antimicrob Agents Chemother, 2009).

system: Plasmodium falciparum; experiment: Antimalarial activity against Plasmodium falciparum FCM29 assessed as incorporation of [3H]hypoxanthine after 48 hrs by scintillation counter; type: functional, organism-based

SMILES | IC50 [nM]
O=C1C(O)=C([C@H]2CC[C@H](c3ccc(Cl)cc3)CC2)C(=O)c2ccccc21 [ATOVAQUONE] | 2.4
C[C@H]1[C@@H](O)O[C@@H]2O[C@@]3(C)CC[C@H]4[C@H](C)CC[C@@H]1[C@@]24OO3 [ARTENIMOL] | 0.9

system: Plasmodium falciparum; experiment: Antimalarial activity against Plasmodium falciparum HB3 assessed as incorporation of [3H]hypoxanthine after 48 hrs by scintillation counter; type: functional, organism-based

SMILES | IC50 [nM]
O=C1C(O)=C([C@H]2CC[C@H](c3ccc(Cl)cc3)CC2)C(=O)c2ccccc21 [ATOVAQUONE] | 2.4
C[C@H]1[C@@H](O)O[C@@H]2O[C@@]3(C)CC[C@H]4[C@H](C)CC[C@@H]1[C@@]24OO3 [ARTENIMOL] | 0.9

system: Plasmodium falciparum; experiment: Antimalarial activity against Plasmodium falciparum IMT 8425 assessed as incorporation of [3H]hypoxanthine after 48 hrs by scintillation counter; type: functional, organism-based

SMILES | IC50 [nM]
O=C1C(O)=C([C@H]2CC[C@H](c3ccc(Cl)cc3)CC2)C(=O)c2ccccc21 [ATOVAQUONE] | 2.4
C[C@H]1[C@@H](O)O[C@@H]2O[C@@]3(C)CC[C@H]4[C@H](C)CC[C@@H]1[C@@]24OO3 [ARTENIMOL] | 0.9

system: Plasmodium falciparum; experiment: Antimalarial activity against Plasmodium falciparum IMT 10336 assessed as incorporation of [3H]hypoxanthine after 48 hrs by scintillation counter; type: functional, organism-based

SMILES | IC50 [nM]
O=C1C(O)=C([C@H]2CC[C@H](c3ccc(Cl)cc3)CC2)C(=O)c2ccccc21 [ATOVAQUONE] | 2.4
C[C@H]1[C@@H](O)O[C@@H]2O[C@@]3(C)CC[C@H]4[C@H](C)CC[C@@H]1[C@@]24OO3 [ARTENIMOL] | 0.9

system: Plasmodium falciparum; experiment: Antimalarial activity against Plasmodium falciparum IMT 9881 assessed as incorporation of [3H]hypoxanthine after 48 hrs by scintillation counter; type: functional, organism-based

SMILES | IC50 [nM]
O=C1C(O)=C([C@H]2CC[C@H](c3ccc(Cl)cc3)CC2)C(=O)c2ccccc21 [ATOVAQUONE] | 2.4
C[C@H]1[C@@H](O)O[C@@H]2O[C@@]3(C)CC[C@H]4[C@H](C)CC[C@@H]1[C@@]24OO3 [ARTENIMOL] | 0.9

system: Plasmodium falciparum; experiment: Antimalarial activity against Plasmodium falciparum IMT Bres assessed as incorporation of [3H]hypoxanthine after 48 hrs by scintillation counter; type: functional, organism-based

SMILES | IC50 [nM]
O=C1C(O)=C([C@H]2CC[C@H](c3ccc(Cl)cc3)CC2)C(=O)c2ccccc21 [ATOVAQUONE] | 2.4
C[C@H]1[C@@H](O)O[C@@H]2O[C@@]3(C)CC[C@H]4[C@H](C)CC[C@@H]1[C@@]24OO3 [ARTENIMOL] | 0.9

system: Plasmodium falciparum; experiment: Antimalarial activity against Plasmodium falciparum IMT A4 assessed as incorporation of [3H]hypoxanthine after 48 hrs by scintillation counter; type: functional, organism-based

SMILES | IC50 [nM]
O=C1C(O)=C([C@H]2CC[C@H](c3ccc(Cl)cc3)CC2)C(=O)c2ccccc21 [ATOVAQUONE] | 2.4
C[C@H]1[C@@H](O)O[C@@H]2O[C@@]3(C)CC[C@H]4[C@H](C)CC[C@@H]1[C@@]24OO3 [ARTENIMOL] | 0.9

system: Plasmodium falciparum; experiment: Antimalarial activity against Plasmodium falciparum IMT Guy assessed as incorporation of [3H]hypoxanthine after 48 hrs by scintillation counter; type: functional, organism-based

SMILES | IC50 [nM]
O=C1C(O)=C([C@H]2CC[C@H](c3ccc(Cl)cc3)CC2)C(=O)c2ccccc21 [ATOVAQUONE] | 2.4
C[C@H]1[C@@H](O)O[C@@H]2O[C@@]3(C)CC[C@H]4[C@H](C)CC[C@@H]1[C@@]24OO3 [ARTENIMOL] | 0.9

system: Plasmodium falciparum; experiment: Antimalarial activity against Plasmodium falciparum IMT L1 assessed as incorporation of [3H]hypoxanthine after 48 hrs by scintillation counter; type: functional, organism-based

SMILES | IC50 [nM]
O=C1C(O)=C([C@H]2CC[C@H](c3ccc(Cl)cc3)CC2)C(=O)c2ccccc21 [ATOVAQUONE] | 2.4
C[C@H]1[C@@H](O)O[C@@H]2O[C@@]3(C)CC[C@H]4[C@H](C)CC[C@@H]1[C@@]24OO3 [ARTENIMOL] | 0.9

system: Plasmodium falciparum; experiment: Antimalarial activity against Plasmodium falciparum 3D7 assessed as incorporation of [3H]hypoxanthine after 48 hrs by scintillation counter; type: functional, organism-based

SMILES | IC50 [nM]
O=C1C(O)=C([C@H]2CC[C@H](c3ccc(Cl)cc3)CC2)C(=O)c2ccccc21 [ATOVAQUONE] | 2.4

system: Plasmodium falciparum; experiment: Antimalarial activity against Plasmodium falciparum FCR3 assessed as incorporation of [3H]hypoxanthine after 48 hrs by scintillation counter; type: functional, organism-based

SMILES | IC50 [nM]
O=C1C(O)=C([C@H]2CC[C@H](c3ccc(Cl)cc3)CC2)C(=O)c2ccccc21 [ATOVAQUONE] | 2.4
C[C@H]1[C@@H](O)O[C@@H]2O[C@@]3(C)CC[C@H]4[C@H](C)CC[C@@H]1[C@@]24OO3 [ARTENIMOL] | 0.9

system: Plasmodium falciparum; experiment: Antimalarial activity against Plasmodium falciparum 106/1 assessed as incorporation of [3H]hypoxanthine after 48 hrs by scintillation counter; type: functional, organism-based

SMILES | IC50 [nM]
O=C1C(O)=C([C@H]2CC[C@H](c3ccc(Cl)cc3)CC2)C(=O)c2ccccc21 [ATOVAQUONE] | 2.4
C[C@H]1[C@@H](O)O[C@@H]2O[C@@]3(C)CC[C@H]4[C@H](C)CC[C@@H]1[C@@]24OO3 [ARTENIMOL] | 0.9

system: Plasmodium falciparum; experiment: Antimalarial activity against Plasmodium falciparum PA assessed as incorporation of [3H]hypoxanthine after 48 hrs by scintillation counter; type: functional, organism-based

SMILES | IC50 [nM]
O=C1C(O)=C([C@H]2CC[C@H](c3ccc(Cl)cc3)CC2)C(=O)c2ccccc21 [ATOVAQUONE] | 2.4
C[C@H]1[C@@H](O)O[C@@H]2O[C@@]3(C)CC[C@H]4[C@H](C)CC[C@@H]1[C@@]24OO3 [ARTENIMOL] | 0.9

system: Plasmodium falciparum; experiment: Antimalarial activity against Plasmodium falciparum IMT 31 assessed as incorporation of [3H]hypoxanthine after 48 hrs by scintillation counter; type: functional, organism-based

SMILES | IC50 [nM]
O=C1C(O)=C([C@H]2CC[C@H](c3ccc(Cl)cc3)CC2)C(=O)c2ccccc21 [ATOVAQUONE] | 2.4
C[C@H]1[C@@H](O)O[C@@H]2O[C@@]3(C)CC[C@H]4[C@H](C)CC[C@@H]1[C@@]24OO3 [ARTENIMOL] | 0.9

system: Plasmodium falciparum; experiment: Antimalarial activity against Plasmodium falciparum IMT 16332 assessed as incorporation of [3H]hypoxanthine after 48 hrs by scintillation counter; type: functional, organism-based

SMILES | IC50 [nM]
O=C1C(O)=C([C@H]2CC[C@H](c3ccc(Cl)cc3)CC2)C(=O)c2ccccc21 [ATOVAQUONE] | 2.4
C[C@H]1[C@@H](O)O[C@@H]2O[C@@]3(C)CC[C@H]4[C@H](C)CC[C@@H]1[C@@]24OO3 [ARTENIMOL] | 0.9

system: Plasmodium falciparum; experiment: Antimalarial activity against Plasmodium falciparum IMT 10500 assessed as incorporation of [3H]hypoxanthine after 48 hrs by scintillation counter; type: functional, organism-based

SMILES | IC50 [nM]
O=C1C(O)=C([C@H]2CC[C@H](c3ccc(Cl)cc3)CC2)C(=O)c2ccccc21 [ATOVAQUONE] | 2.4
C[C@H]1[C@@H](O)O[C@@H]2O[C@@]3(C)CC[C@H]4[C@H](C)CC[C@@H]1[C@@]24OO3 [ARTENIMOL] | 0.9

system: Plasmodium falciparum; experiment: Antimalarial activity against Plasmodium falciparum IMT K4 assessed as incorporation of [3H]hypoxanthine after 48 hrs by scintillation counter; type: functional, organism-based

SMILES | IC50 [nM]
O=C1C(O)=C([C@H]2CC[C@H](c3ccc(Cl)cc3)CC2)C(=O)c2ccccc21 [ATOVAQUONE] | 2.4
C[C@H]1[C@@H](O)O[C@@H]2O[C@@]3(C)CC[C@H]4[C@H](C)CC[C@@H]1[C@@]24OO3 [ARTENIMOL] | 0.9

system: Plasmodium falciparum; experiment: Antimalarial activity against Plasmodium falciparum W2 assessed as incorporation of [3H]hypoxanthine after 48 hrs by scintillation counter; type: functional, organism-based

SMILES | IC50 [nM]
O=C1C(O)=C([C@H]2CC[C@H](c3ccc(Cl)cc3)CC2)C(=O)c2ccccc21 [ATOVAQUONE] | 2.4
C[C@H]1[C@@H](O)O[C@@H]2O[C@@]3(C)CC[C@H]4[C@H](C)CC[C@@H]1[C@@]24OO3 [ARTENIMOL] | 0.9

system: Plasmodium falciparum; experiment: Antimalarial activity against Plasmodium falciparum D6 assessed as incorporation of [3H]hypoxanthine after 48 hrs by scintillation counter; type: functional, organism-based

SMILES | IC50 [nM]
O=C1C(O)=C([C@H]2CC[C@H](c3ccc(Cl)cc3)CC2)C(=O)c2ccccc21 [ATOVAQUONE] | 2.4
C[C@H]1[C@@H](O)O[C@@H]2O[C@@]3(C)CC[C@H]4[C@H](C)CC[C@@H]1[C@@]24OO3 [ARTENIMOL] | 0.9

system: Plasmodium falciparum; experiment: Antimalarial activity against Plasmodium falciparum IMT K14 assessed as incorporation of [3H]hypoxanthine after 48 hrs by scintillation counter; type: functional, organism-based

SMILES | IC50 [nM]
O=C1C(O)=C([C@H]2CC[C@H](c3ccc(Cl)cc3)CC2)C(=O)c2ccccc21 [ATOVAQUONE] | 2.4
C[C@H]1[C@@H](O)O[C@@H]2O[C@@]3(C)CC[C@H]4[C@H](C)CC[C@@H]1[C@@]24OO3 [ARTENIMOL] | 0.9

system: Plasmodium falciparum; experiment: Antimalarial activity against Plasmodium falciparum IMT Vol assessed as incorporation of [3H]hypoxanthine after 48 hrs by scintillation counter; type: functional, organism-based

SMILES | IC50 [nM]
O=C1C(O)=C([C@H]2CC[C@H](c3ccc(Cl)cc3)CC2)C(=O)c2ccccc21 [ATOVAQUONE] | 2.4
C[C@H]1[C@@H](O)O[C@@H]2O[C@@]3(C)CC[C@H]4[C@H](C)CC[C@@H]1[C@@]24OO3 [ARTENIMOL] | 0.9

system: Plasmodium falciparum; experiment: Antimalarial activity against Plasmodium falciparum IMT K2 assessed as incorporation of [3H]hypoxanthine after 48 hrs by scintillation counter; type: functional, organism-based

SMILES | IC50 [nM]
O=C1C(O)=C([C@H]2CC[C@H](c3ccc(Cl)cc3)CC2)C(=O)c2ccccc21 [ATOVAQUONE] | 2.4
C[C@H]1[C@@H](O)O[C@@H]2O[C@@]3(C)CC[C@H]4[C@H](C)CC[C@@H]1[C@@]24OO3 [ARTENIMOL] | 0.9
